Patent US11707511B2, “Vaccine compositions and methods of using the same” (The Board of Supervisors of Louisiana State University and …, priority 2017, dated 2023)
“Also recorded” adds a separate entry of the source.

Legend:
[1] = tested on: C. albicans 3153A; assay: Amp B - antibody combination therapy of mice with disseminated candidiasis; assay type: in vivo, Candida albicans; conditions: BALB/c mice, Amp B 0.5 mg/kg
Method: Mice were then given by i.v. of 5×10e5 of C. albicans 3153A yeast cells, 8 hour later the mice received i.p. 0.5 mg Amp B/kg body weight with each mAb (E2-9, M2-4, 2D5F7 and 2B10C1). Mice without any treatment and mice treated with antifungal drug alone were used as controls. Survival curves were scored and MST were measured.

[2] = tested on: HLA-DR types; conditions: of the most common HLA-DR types tested to date; cited from earlier work
[3] = when incorporated into several peptide antigens; average; cited from earlier work

## C[C@@H]1[C@H](O)[C@@H](C)/C=C/C=C/C=C/C=C/C=C/C=C/C=C/[C@H](O[C@@H]2O[C@H](C)[C@@H](O)[C@H](N)[C@@H]2O)C[C@@H]2O[C@](O)(C[C@@H](O)C[C@@H](O)[C@H](O)CC[C@@H](O)C[C@@H](O)CC(=O)O[C@H]1C)C[C@H](O)[C@H]2C(=O)O [Amp B, amphotericin B]
[1]; treatment 8 hours post-infection, in words
  therapeutic effect / survival time: the same susceptible to the disease as mice that received no Amp B; also recorded: no therapeutic effect
[1]; Table 16, 5×10e5 C. albicans 3153A i.v., treatment i.p. 8 hours post-infection
  MST (mean survival times): 14.5 ± 3.7 days

## AKFVAAWTLKAAA [PADRE]
[2]
  HLA-DR types bound with high or intermediate affinity: 15 of 16

## RGD
[3]
  enhancement of antibody titers: 10 times
